Assay results reported in ChEMBL document CHEMBL1671642 (2009).
Values after ≈ are worked out from the molar mass of the structure shown.

Assays:
Format in all cases: functional
Escherichia coli [1] = experiment: Antimicrobial activity against Escherichia coli K-12 3-AG300 harboring acrB::rpsLneo mutant gene
Escherichia coli [2] = experiment: Ratio of MIC for Escherichia coli K-12 3-AG300 harboring acrB::rpsLneo mutant gene to MIC for Escherichia coli K-12 3-AG300
Escherichia coli [3] = experiment: Antimicrobial activity against Escherichia coli K-12 3-AG300 harboring AcrB-F628F mutant gene
Escherichia coli [4] = experiment: Antimicrobial activity against Escherichia coli K-12 3-AG300 harboring AcrB-615-628MexB mutant gene
Escherichia coli [5] = experiment: Antimicrobial activity against Escherichia coli K-12 3-AG300 harboring AcrB-I626M mutant gene
Escherichia coli [6] = experiment: Antimicrobial activity against Escherichia coli K-12 3-AG300 harboring AcrB-615-628MexB-M626I mutant gene
Escherichia coli [7] = experiment: Antimicrobial activity against Escherichia coli K-12 3-AG300 harboring AcrB-G616N mutant gene
Escherichia coli [8] = experiment: Ratio of MIC for Escherichia coli K-12 3-AG300 harboring AcrB-615-628MexB mutant gene to MIC for Escherichia coli K-12 3-AG300
Escherichia coli [9] = experiment: Ratio of MIC for Escherichia coli K-12 3-AG300 harboring AcrB-615-628MexB-M626I mutant gene to MIC for Escherichia coli K-12 3-AG300
Escherichia coli [10] = experiment: Antimicrobial activity against Escherichia coli K-12 3-AG300 harboring AcrB-615-628MexB-S623N mutant gene
Escherichia coli [11] = experiment: Ratio of MIC for Escherichia coli K-12 3-AG300 harboring AcrB-G616N mutant gene to MIC for Escherichia coli K-12 3-AG300
Escherichia coli [12] = experiment: Antimicrobial activity against Escherichia coli K-12 3-AG300 harboring AcrB-615-628MexB-N616 mutant gene
Escherichia coli [13] = experiment: Antimicrobial activity against Escherichia coli K-12 3-AG300 harboring AcrB-N623S-Q624S mutant gene

CCOc1ccc(-c2nc3cc(-c4nc5cc(N6CCN(C)CC6)ccc5[nH]4)ccc3[nH]2)cc1
MIC (Escherichia coli [1]): 0.125 µg/mL (≈ 0.276 µM)
Ratio (Escherichia coli [2]): 4
MIC (Escherichia coli [3]): 4 µg/mL (≈ 8.84 µM)
MIC (Escherichia coli [4]): 4 µg/mL (≈ 8.84 µM)

CC[C@H]1OC(=O)[C@H](C)[C@@H](O[C@H]2C[C@@](C)(OC)[C@@H](O)[C@H](C)O2)[C@H](C)[C@@H](O[C@@H]2O[C@H](C)C[C@H](N(C)C)[C@H]2O)[C@](C)(O)C[C@@H](C)CN(C)[C@H](C)[C@@H](O)[C@]1(C)O [AZITHROMYCIN]
MIC (Escherichia coli [5]): 32 µg/mL (≈ 42.7 µM)
MIC (Escherichia coli [1]): 0.5 µg/mL (≈ 0.668 µM)
Ratio (Escherichia coli [2]): 4
MIC (Escherichia coli [6]): 8 µg/mL (≈ 10.7 µM)
MIC (Escherichia coli [7]): 16 µg/mL (≈ 21.4 µM)
MIC (Escherichia coli [3]): 64 µg/mL (≈ 85.4 µM)
Ratio (Escherichia coli [8]): 4
MIC (Escherichia coli [4]): 16 µg/mL (≈ 21.4 µM)
Ratio (Escherichia coli [9]): 4
MIC (Escherichia coli [10]): 16 µg/mL (≈ 21.4 µM)
Ratio (Escherichia coli [11]): 4
MIC (Escherichia coli [12]): 64 µg/mL (≈ 85.4 µM)

CCBr [BROMOETHANE]
MIC (Escherichia coli [5]): 1020 µg/mL (≈ 9400 µM)
MIC (Escherichia coli [13]): 1020 µg/mL (≈ 9400 µM)
MIC (Escherichia coli [1]): 16 µg/mL (≈ 147 µM)
Ratio (Escherichia coli [2]): 4
MIC (Escherichia coli [6]): 512 µg/mL (≈ 4700 µM)
MIC (Escherichia coli [7]): 1020 µg/mL (≈ 9400 µM)
MIC (Escherichia coli [3]): 512 µg/mL (≈ 4700 µM)
MIC (Escherichia coli [4]): 512 µg/mL (≈ 4700 µM)
MIC (Escherichia coli [10]): 512 µg/mL (≈ 4700 µM)
MIC (Escherichia coli [12]): 512 µg/mL (≈ 4700 µM)

O=C(N[C@H](CO)[C@H](O)c1ccc([N+](=O)[O-])cc1)C(Cl)Cl [CHLORAMPHENICOL]
MIC (Escherichia coli [5]): 8 µg/mL (≈ 24.8 µM)
MIC (Escherichia coli [13]): 8 µg/mL (≈ 24.8 µM)
MIC (Escherichia coli [1]): 1 µg/mL (≈ 3.09 µM)
MIC (Escherichia coli [6]): 8 µg/mL (≈ 24.8 µM)
MIC (Escherichia coli [7]): 8 µg/mL (≈ 24.8 µM)
MIC (Escherichia coli [3]): 8 µg/mL (≈ 24.8 µM)
MIC (Escherichia coli [12]): 8 µg/mL (≈ 24.8 µM)

CC[C@H]1OC(=O)[C@H](C)[C@@H](O[C@H]2C[C@@](C)(OC)[C@@H](O)[C@H](C)O2)[C@H](C)[C@@H](O[C@@H]2O[C@H](C)C[C@H](N(C)C)[C@H]2O)[C@](C)(OC)C[C@@H](C)C(=O)[C@H](C)[C@@H](O)[C@]1(C)O [CLARITHROMYCIN]
MIC (Escherichia coli [5]): 512 µg/mL (≈ 685 µM)
MIC (Escherichia coli [13]): 512 µg/mL (≈ 685 µM)
MIC (Escherichia coli [1]): 4 µg/mL (≈ 5.35 µM)
Ratio (Escherichia coli [2]): 4
MIC (Escherichia coli [6]): 64 µg/mL (≈ 85.6 µM)
MIC (Escherichia coli [7]): 128 µg/mL (≈ 171 µM)
MIC (Escherichia coli [3]): 512 µg/mL (≈ 685 µM)
Ratio (Escherichia coli [8]): 4
MIC (Escherichia coli [4]): 64 µg/mL (≈ 85.6 µM)
Ratio (Escherichia coli [9]): 4
MIC (Escherichia coli [10]): 128 µg/mL (≈ 171 µM)
Ratio (Escherichia coli [11]): 4
MIC (Escherichia coli [12]): 512 µg/mL (≈ 685 µM)

CCC[C@@H]1C[C@@H](C(=O)N[C@@H]([C@H]2O[C@H](SC)[C@H](O)[C@@H](O)[C@H]2O)[C@H](C)Cl)N(C)C1 [CLINDAMYCIN]
MIC (Escherichia coli [1]): 4 µg/mL (≈ 9.41 µM)
Ratio (Escherichia coli [2]): 4
MIC (Escherichia coli [3]): 256 µg/mL (≈ 602 µM)
MIC (Escherichia coli [4]): 256 µg/mL (≈ 602 µM)

CC[C@H]1OC(=O)[C@H](C)[C@@H](O[C@H]2C[C@@](C)(OC)[C@@H](O)[C@H](C)O2)[C@H](C)[C@@H](O[C@@H]2O[C@H](C)C[C@H](N(C)C)[C@H]2O)[C@](C)(O)C[C@@H](C)C(=O)[C@H](C)[C@@H](O)[C@]1(C)O [ERYTHROMYCIN]
MIC (Escherichia coli [5]): 512 µg/mL (≈ 698 µM)
MIC (Escherichia coli [1]): 4 µg/mL (≈ 5.45 µM)
Ratio (Escherichia coli [2]): 4
MIC (Escherichia coli [6]): 128 µg/mL (≈ 174 µM)
MIC (Escherichia coli [7]): 128 µg/mL (≈ 174 µM)
MIC (Escherichia coli [3]): 512 µg/mL (≈ 698 µM)
Ratio (Escherichia coli [8]): 4
MIC (Escherichia coli [4]): 128 µg/mL (≈ 174 µM)
Ratio (Escherichia coli [9]): 4
MIC (Escherichia coli [10]): 256 µg/mL (≈ 349 µM)
Ratio (Escherichia coli [11]): 4
MIC (Escherichia coli [12]): 256 µg/mL (≈ 349 µM)

CC(=O)NC[C@H]1CN(c2ccc(N3CCOCC3)c(F)c2)C(=O)O1 [LINEZOLID]
MIC (Escherichia coli [5]): 512 µg/mL (≈ 1520 µM)
MIC (Escherichia coli [13]): 512 µg/mL (≈ 1520 µM)
MIC (Escherichia coli [1]): 16 µg/mL (≈ 47.4 µM)
Ratio (Escherichia coli [2]): 4
MIC (Escherichia coli [6]): 1020 µg/mL (≈ 3040 µM)
MIC (Escherichia coli [7]): 512 µg/mL (≈ 1520 µM)
MIC (Escherichia coli [3]): 512 µg/mL (≈ 1520 µM)
MIC (Escherichia coli [4]): 1020 µg/mL (≈ 3040 µM)
MIC (Escherichia coli [10]): 1020 µg/mL (≈ 3040 µM)
MIC (Escherichia coli [12]): 1020 µg/mL (≈ 3040 µM)

CN(C)c1ccc(O)c2c1C[C@H]1C[C@H]3[C@H](N(C)C)C(O)=C(C(N)=O)C(=O)[C@@]3(O)C(O)=C1C2=O [MINOCYCLINE]
MIC (Escherichia coli [5]): 4 µg/mL (≈ 8.74 µM)
MIC (Escherichia coli [13]): 4 µg/mL (≈ 8.74 µM)
MIC (Escherichia coli [1]): 0.125 µg/mL (≈ 0.273 µM)
Ratio (Escherichia coli [2]): 4
MIC (Escherichia coli [6]): 4 µg/mL (≈ 8.74 µM)
MIC (Escherichia coli [7]): 4 µg/mL (≈ 8.74 µM)
MIC (Escherichia coli [3]): 4 µg/mL (≈ 8.74 µM)
MIC (Escherichia coli [4]): 2 µg/mL (≈ 4.37 µM)
MIC (Escherichia coli [10]): 2 µg/mL (≈ 4.37 µM)
MIC (Escherichia coli [12]): 2 µg/mL (≈ 4.37 µM)

CO[C@@H]1[C@@H](OC(N)=O)[C@@H](O)[C@H](Oc2ccc3c(O)c(NC(=O)c4ccc(O)c(CC=C(C)C)c4)c(=O)oc3c2C)OC1(C)C [NOVOBIOCIN]
MIC (Escherichia coli [5]): 512 µg/mL (≈ 836 µM)
MIC (Escherichia coli [13]): 512 µg/mL (≈ 836 µM)
MIC (Escherichia coli [1]): 4 µg/mL (≈ 6.53 µM)
Ratio (Escherichia coli [2]): 4
MIC (Escherichia coli [6]): 512 µg/mL (≈ 836 µM)
MIC (Escherichia coli [7]): 512 µg/mL (≈ 836 µM)
MIC (Escherichia coli [3]): 512 µg/mL (≈ 836 µM)
MIC (Escherichia coli [4]): 512 µg/mL (≈ 836 µM)
MIC (Escherichia coli [10]): 1020 µg/mL (≈ 1670 µM)
MIC (Escherichia coli [12]): 512 µg/mL (≈ 836 µM)

Cc1onc(-c2ccccc2)c1C(=O)N[C@@H]1C(=O)N2[C@@H]1SC(C)(C)[C@@H]2C(=O)O [OXACILLIN]
MIC (Escherichia coli [5]): 512 µg/mL (≈ 1280 µM)
MIC (Escherichia coli [13]): 256 µg/mL (≈ 638 µM)
MIC (Escherichia coli [1]): 0.5 µg/mL (≈ 1.25 µM)
Ratio (Escherichia coli [2]): 4
MIC (Escherichia coli [6]): 256 µg/mL (≈ 638 µM)
MIC (Escherichia coli [7]): 256 µg/mL (≈ 638 µM)
MIC (Escherichia coli [3]): 512 µg/mL (≈ 1280 µM)
MIC (Escherichia coli [4]): 256 µg/mL (≈ 638 µM)
MIC (Escherichia coli [10]): 512 µg/mL (≈ 1280 µM)
MIC (Escherichia coli [12]): 256 µg/mL (≈ 638 µM)
